Source: patent US12258344B2, “Azaaromatic amide derivatives for the treatment of cancer” (SHENZHEN FORWARD PHARMACEUTICALS CO., LTD., priority 2019, dated 2025)
Structures can show the parent of a compound that is named as a salt. Where two headings read alike, the source gives them in different places.

Assays:
Format in all cases: cell-based
BaF3 (EGFR/D770insSVD) = target: T1, BaF3 (EGFR/D770insSVD) (Homo sapiens, UniProt P00533, DUP768-770, cells depend on it); experiment: Test 13: EGFR exon 20 inserted D770insSVD cell proliferation test; details: BaF3 (EGFR/D770insSVD), 72 hours, Cell Titer-Glo, read-out: Test 13 IC50
T1 construct: Test 13 IC50 (nM); other: BaF3 (EGFR/D770insSVD), 72 hours, Cell Titer-Glo
T1 sequence (P00533 with tags, fused parts or gaps DUP768-770): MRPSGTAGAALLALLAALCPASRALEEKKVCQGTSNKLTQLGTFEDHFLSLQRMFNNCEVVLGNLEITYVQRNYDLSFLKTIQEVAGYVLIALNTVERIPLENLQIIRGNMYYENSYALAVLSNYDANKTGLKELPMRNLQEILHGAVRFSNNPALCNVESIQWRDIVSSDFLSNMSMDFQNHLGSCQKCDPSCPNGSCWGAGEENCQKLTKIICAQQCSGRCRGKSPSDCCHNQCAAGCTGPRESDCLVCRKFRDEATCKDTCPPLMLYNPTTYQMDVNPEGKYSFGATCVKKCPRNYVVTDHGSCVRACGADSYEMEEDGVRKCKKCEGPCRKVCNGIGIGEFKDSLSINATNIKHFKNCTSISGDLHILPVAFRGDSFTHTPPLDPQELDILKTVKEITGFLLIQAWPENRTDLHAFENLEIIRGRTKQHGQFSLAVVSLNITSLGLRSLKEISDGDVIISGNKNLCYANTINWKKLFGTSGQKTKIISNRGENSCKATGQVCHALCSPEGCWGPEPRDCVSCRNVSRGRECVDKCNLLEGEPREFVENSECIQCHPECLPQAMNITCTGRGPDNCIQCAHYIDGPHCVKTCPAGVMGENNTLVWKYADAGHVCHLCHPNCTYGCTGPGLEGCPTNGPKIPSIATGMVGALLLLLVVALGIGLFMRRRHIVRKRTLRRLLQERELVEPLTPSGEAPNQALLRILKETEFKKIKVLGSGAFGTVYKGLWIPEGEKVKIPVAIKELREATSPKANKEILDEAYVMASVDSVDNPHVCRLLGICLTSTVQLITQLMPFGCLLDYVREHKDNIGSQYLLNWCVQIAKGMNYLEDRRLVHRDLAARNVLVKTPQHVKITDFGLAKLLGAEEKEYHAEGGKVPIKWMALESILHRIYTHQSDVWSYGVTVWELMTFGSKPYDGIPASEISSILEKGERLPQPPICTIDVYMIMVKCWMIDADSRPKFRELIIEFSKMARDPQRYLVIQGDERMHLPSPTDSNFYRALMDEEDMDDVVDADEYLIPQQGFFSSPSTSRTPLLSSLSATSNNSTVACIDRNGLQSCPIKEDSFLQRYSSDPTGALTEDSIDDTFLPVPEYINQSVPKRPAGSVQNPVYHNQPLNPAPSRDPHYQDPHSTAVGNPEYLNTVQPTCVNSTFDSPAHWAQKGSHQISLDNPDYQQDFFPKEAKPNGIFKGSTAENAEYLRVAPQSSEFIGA
Experimental: Test 13: EGFR Exon 20 Inserted D770insSVD Cell Proliferation Test
(§1) The number of viable cells in the culture was measured according to the protocol described in Promega's Cell Titer-Glo Luminescent cell Viability Assay (Promega catalog number #G7570). 90 μl of cells (3,000 cells/well) were cultured in growth medium in a Corning black transparent bottom 96-well plate, and cultured in a 5% CO2 humidified incubator at 37° C. overnight. The compound serially diluted in 100% DMSO was added to the cells using a pipette, and the cells were incubated for another 72 hours. 100 μl of the mixed Cell Titer-Glo reagent was added to the cells in the 96-well culture plate to lyse the cells and mix gently. Subsequently, the […] was detected on the Envision microplate detector to obtain the data of each compound. Finally, the data was input into a suitable software package (such as Prism) for curve fitting analysis.

BaF3 (EGFR/A763insFQEA) = BaF3 (EGFR/A763insFQEA) (Homo sapiens, UniProt P00533, INS763FQEA, cells depend on it); experiment: Test 14: EGFR exon 20 inserted A763insFQEA cell proliferation test; details: 72 hours, Cell Titer-Glo, read-out: Test 14 IC50
Chain of BaF3 (EGFR/A763insFQEA) (P00533 with tags, fused parts or gaps INS763FQEA): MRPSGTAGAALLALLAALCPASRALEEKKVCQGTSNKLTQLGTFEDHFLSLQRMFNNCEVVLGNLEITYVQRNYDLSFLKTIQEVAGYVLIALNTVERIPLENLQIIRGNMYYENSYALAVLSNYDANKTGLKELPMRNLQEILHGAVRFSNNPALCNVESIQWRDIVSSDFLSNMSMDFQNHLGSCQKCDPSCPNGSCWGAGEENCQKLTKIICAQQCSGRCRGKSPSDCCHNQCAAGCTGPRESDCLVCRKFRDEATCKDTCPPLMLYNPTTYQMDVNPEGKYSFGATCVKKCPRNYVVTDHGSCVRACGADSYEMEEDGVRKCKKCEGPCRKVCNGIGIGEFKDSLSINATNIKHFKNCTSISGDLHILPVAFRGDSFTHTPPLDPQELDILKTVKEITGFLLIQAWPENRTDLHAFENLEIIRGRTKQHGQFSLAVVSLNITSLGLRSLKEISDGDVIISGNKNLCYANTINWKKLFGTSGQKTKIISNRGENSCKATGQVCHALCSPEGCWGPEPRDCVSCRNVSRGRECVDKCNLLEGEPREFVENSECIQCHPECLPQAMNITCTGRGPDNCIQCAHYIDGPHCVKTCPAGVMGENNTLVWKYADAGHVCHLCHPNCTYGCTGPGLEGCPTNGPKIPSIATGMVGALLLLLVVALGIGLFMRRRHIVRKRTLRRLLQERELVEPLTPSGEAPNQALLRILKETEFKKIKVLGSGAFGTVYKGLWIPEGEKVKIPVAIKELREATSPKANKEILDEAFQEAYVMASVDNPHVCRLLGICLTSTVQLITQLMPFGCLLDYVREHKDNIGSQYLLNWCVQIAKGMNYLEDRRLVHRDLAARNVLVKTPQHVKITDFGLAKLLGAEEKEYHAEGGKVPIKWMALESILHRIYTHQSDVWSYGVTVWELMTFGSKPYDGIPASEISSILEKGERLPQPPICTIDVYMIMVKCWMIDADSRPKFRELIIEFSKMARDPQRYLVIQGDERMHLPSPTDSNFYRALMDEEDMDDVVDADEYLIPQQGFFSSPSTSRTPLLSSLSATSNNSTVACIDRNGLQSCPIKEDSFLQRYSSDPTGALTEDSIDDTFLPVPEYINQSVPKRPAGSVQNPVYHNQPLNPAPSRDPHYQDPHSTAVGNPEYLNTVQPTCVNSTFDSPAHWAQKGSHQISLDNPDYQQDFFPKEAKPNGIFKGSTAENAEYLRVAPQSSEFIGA
Experimental: Test 14: EGFR Exon 20 Inserted A763insFQEA Cell Proliferation Test
as §1

BaF3 (EGFR/V769insASV) = BaF3 (EGFR/V769insASV) (Homo sapiens, UniProt P00533, DUP767-769, cells depend on it); experiment: Test 15: EGFR exon 20 inserted V769insASV cell proliferation test; details: 72 hours, Cell Titer-Glo, read-out: Test 15 IC50
Chain of BaF3 (EGFR/V769insASV) (P00533 with tags, fused parts or gaps DUP767-769): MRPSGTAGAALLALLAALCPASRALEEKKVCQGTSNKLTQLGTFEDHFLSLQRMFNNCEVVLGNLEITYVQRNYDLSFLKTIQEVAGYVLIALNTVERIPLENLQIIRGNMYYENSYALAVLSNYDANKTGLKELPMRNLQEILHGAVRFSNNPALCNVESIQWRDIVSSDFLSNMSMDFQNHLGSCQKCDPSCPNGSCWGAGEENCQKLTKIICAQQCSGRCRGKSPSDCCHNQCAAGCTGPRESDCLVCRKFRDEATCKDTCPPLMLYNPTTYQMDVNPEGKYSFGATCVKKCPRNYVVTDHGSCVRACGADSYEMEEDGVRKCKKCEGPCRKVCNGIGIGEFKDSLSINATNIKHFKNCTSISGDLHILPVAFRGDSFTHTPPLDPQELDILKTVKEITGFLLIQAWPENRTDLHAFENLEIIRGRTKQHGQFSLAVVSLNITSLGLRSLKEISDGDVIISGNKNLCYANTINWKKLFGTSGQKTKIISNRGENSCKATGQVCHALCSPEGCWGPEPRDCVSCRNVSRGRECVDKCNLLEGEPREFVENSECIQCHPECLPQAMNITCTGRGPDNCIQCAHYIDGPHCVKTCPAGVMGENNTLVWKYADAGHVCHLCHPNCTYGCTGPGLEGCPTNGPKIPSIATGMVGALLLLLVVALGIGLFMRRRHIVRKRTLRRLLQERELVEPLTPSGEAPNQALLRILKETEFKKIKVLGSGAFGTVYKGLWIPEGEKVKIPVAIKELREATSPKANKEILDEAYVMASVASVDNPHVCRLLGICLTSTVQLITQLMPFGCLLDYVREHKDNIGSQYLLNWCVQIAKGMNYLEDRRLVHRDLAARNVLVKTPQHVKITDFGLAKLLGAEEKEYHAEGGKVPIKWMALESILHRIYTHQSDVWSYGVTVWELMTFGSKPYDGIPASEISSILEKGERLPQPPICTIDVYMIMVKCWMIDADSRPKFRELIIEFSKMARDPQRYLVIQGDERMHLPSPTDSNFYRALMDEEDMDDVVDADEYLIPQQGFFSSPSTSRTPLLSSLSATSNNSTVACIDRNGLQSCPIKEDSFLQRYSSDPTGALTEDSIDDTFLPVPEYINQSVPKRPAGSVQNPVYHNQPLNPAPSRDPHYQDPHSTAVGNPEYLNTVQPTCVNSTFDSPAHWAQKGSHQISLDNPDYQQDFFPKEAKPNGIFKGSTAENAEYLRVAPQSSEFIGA
Experimental: Test 15: EGFR Exon 20 Inserted V769insASV Cell Proliferation Test
as §1, with “(3000” for “(3,000”

[1] = system: NCI-H1975 (EGFR L858R/T790M double mutant); experiment: Test 1: EGFR L858R/T790M (EGFR double mutant) cell proliferation test; details: Homo sapiens; NCI-H1975 cells, 72 hours, Cell Titer-Glo
Experimental: Test 1: EGFR L858R/T790M (EGFR Double Mutant) Cell Proliferation Test
The human lung cell line NCI-H1975 (EGFR L858R/T790M double mutant) was obtained from the American Type Culture Collection. NCI-H1975 cells were cultured in RPMI1640 medium containing 10% fetal bovine serum and 2 mM glutamine. The cells were grown at 37° C. in a humidified incubator with 5% CO2.
as §1, with “(8,000” for “(3,000”

Compound	GI50 (BaF3 (EGFR/D770insSVD)) [µM]	GI50 (BaF3 (EGFR/A763insFQEA)) [µM]	GI50 (BaF3 (EGFR/V769insASV)) [µM]	IC50 [1] [µM]	GI50 (BaF3 (EGFR/D770insSVD); hydrochloride) [µM]	GI50 (BaF3 (EGFR/A763insFQEA); hydrochloride) [µM]	GI50 (BaF3 (EGFR/V769insASV); hydrochloride) [µM]
C=CC(=O)Nc1cc(Nc2nccc(-c3cn(C)c4ccccc34)n2)c(OCC)cc1N(C)CCN(C)C [Compound 23, N-(2-((2-(dimethylamino)ethyl)(methyl)amino)-4-ethoxy-5-((4-(1-methyl-1H-indole-3-yl)pyrimidin-2-yl)amino)phenyl)acrylamide]	0.219	0.122	0.264				
C=CC(=O)Nc1cc(Nc2nccc(-c3cn(C)c4ccc(F)cc34)n2)c(OCC)cc1N(C)CCN(C)C [Compound 22, N-(2-((2-(dimethylamino)ethyl)(methyl)amino)-4-ethoxy-5-((4-(5-fluoro-1-methyl-1H-indol-3-yl)pyrimidin-2-yl)amino)phenyl)acrylamide]	0.248	0.193	0.365				
C=CC(=O)Nc1cc(Nc2nccc(-c3cn(C)c4ccc(F)cc34)n2)c(OC)cc1N(C)CCN(C)C [Compound 21, N-(2-((2-(dimethylamino)ethyl)(methyl)amino)-5-((4-(5-fluoro-1-methyl-1H-indol-3-yl)pyrimidin-2-yl)amino)-4-methoxyphenyl)acrylamide]	0.081	0.0501	0.0986				
C=CC(=O)Nc1cc(Nc2nccc(-c3cn(C4CC4)c4ccccc34)n2)c(OC)cc1N(C)CCN(C)C [Compound 29, N-(5-((4-(1-cyclopropyl-1H-indole)pyrimidin-2-yl)-2-((2-(dimethylamino)ethyl(methyl)amine)-4-methoxyphenyl)acrylamide methanesulfonate]	0.24	0.0607	0.174				
C=CC(=O)Nc1cc(Nc2nccc(-c3cn(C)c4ccccc34)n2)c(OC(F)F)cc1N(C)CCNC [Compound 26, N-(4-(difluoromethoxy)-2-(methyl(2-(methylamino)ethyl)amino)-5-((4-(1-methyl-1H-indole-3-yl)pyrimidin-2-yl)amino)phenyl)acrylamide]	0.142	0.0383	0.126				
C=CC(=O)Nc1cc(Nc2nccc(-c3cn(C)c4ccc(F)cc34)n2)c(OC(F)F)cc1N(C)CCNC [Compound 20, N-(4-(difluoromethoxy)-5-((4-(5-fluoro-1-methyl-1H-indol-3-yl)pyrimidin-2-yl)amino)-2-(methyl(2-(methylamino)ethyl)amino)phenyl)acrylamide]	0.0892	0.0751	0.155				
C=CC(=O)Nc1cc(Nc2nccc(-c3cn(C)c4ccccc34)n2)c(OCC)cc1N(C)CCNC [Compound 24, N-(4-ethoxy-2-(methyl(2-(methylamino)ethyl)amino)-5-((4-(1-methyl-1H-indol-3-yl)pyrimidine-2-yl)amino)phenyl)acrylamide]	0.207	0.213	0.266				
C=CC(=O)Nc1cc(Nc2nccc(-c3cn(C)c4ccc(F)cc34)n2)c(OC)cc1N(C)CCNC [Compound 25, N-(5-((4-(5-fluoro-1-methyl-1H-indol-3-yl)pyrimidin-2-yl)amino)-4-methoxy-2-(methyl(2-(methylamino)ethyl)amino)phenyl)acrylamide]	0.0789	0.051	0.104				
C=CC(=O)Nc1cc(Nc2nccc(-c3cn(C)c4ccc(F)cc34)n2)c(OCC)cc1N(C)CCNC [Compound 27, N-(4-ethoxy-5-((4-(5-fluoro-1-methyl-1H-indol-3-yl)pyrimidin-2-yl)amino)-2-(methyl(2-(methylamino)ethyl)amino)phenyl)acrylamide]	0.195	0.177	0.319				
C=CC(=O)Nc1cc(Nc2ncnc(-c3cnc4c(C)cccn34)n2)c(OC)cc1N(C)CCN(C)C [Compound 19, N-(2-((2-(dimethylamino)ethyl)(methyl)amino)-4-methoxy-5-((4-(8-methylimidazole[1,2-a]pyridin-3-yl)-1,3,5-triazin-2-yl)amino)phenyl)acrylamide]	0.144	0.0426	0.148				
C=CC(=O)Nc1cc(Nc2nccc(-c3cn(C4CC4)c4ccccc34)n2)c(OC)cc1N(C)CCN(C)C [Compound 28, N-(5-((4-(1-cyclopropyl-1H-indole)pyrimidin-2-yl)-2-((2-(dimethylamino)ethyl(methyl)amine)-4-methoxyphenyl)acrylamide hydrochloride]					0.237	0.0664	0.176

The next lines start with the values.

GI50 (BaF3 (EGFR/D770insSVD)) [µM]	GI50 (BaF3 (EGFR/A763insFQEA)) [µM]	GI50 (BaF3 (EGFR/V769insASV)) [µM]	IC50 [1] [µM]	GI50 (BaF3 (EGFR/D770insSVD); hydrochloride) [µM]	GI50 (BaF3 (EGFR/A763insFQEA); hydrochloride) [µM]	GI50 (BaF3 (EGFR/V769insASV); hydrochloride) [µM]	Compound
> 3.33	0.0712	> 3.33					COc1cc2ncnc(Nc3cccc(Cl)c3F)c2cc1OC(=O)N1CCN(C)C[C@H]1C [Compound 38]
0.963	0.309	0.455					Cc1cc(C(=O)Nc2nc3cccc(Cl)c3n2[C@@H]2CCCCN(C(=O)/C=C/CN(C)C)C2)ccn1 [Compound 39, (R,E)-N-(7-chloro-1-(1-(4-(dimethylamine)-2-butenoyl)azepane-3-yl)-1H-benzo[d]imidazol-2-yl)-2-methylisonicotinamide]
0.454	0.17	0.325					C=CC(=O)Nc1cccc(Oc2nc(Nc3ccc(N4CCN(C)CC4)cc3)nc3ccsc23)c1 [Compound 36, N-(3-((2-((4-(4-methylpiperazin-1-yl)phenyl)amine)thieno[3,2-d]pyrimidin-4-yl)oxo)phenyl)acrylamide]
0.146	0.106	0.105					C=CC(=O)Nc1cccc(Oc2nc(Nc3ccc(N4CCN(C)CC4)c(F)c3)nc3[nH]ccc23)c1 [Compound 35, N-(3-((2-((3-fluoro-4-(4-methylpiperazin-1-yl)phenyl)amine)-7H-pyrazole[2,3-d]pyrimidine-4-yl)oxo)phenyl)acrylamide]
0.239	0.0636	0.177					C=CC(=O)Nc1cc(Nc2nccc(-c3cn(C4CC4)c4ccccc34)n2)c(OC)cc1N(C)CCN(C)C [Compound 30]
			0.057				C=CC(=O)Nc1cc(Nc2nccc(-n3nc(F)c4ccccc43)n2)c(OC)cc1N(C)CCN(C)C [Example 7]
			0.13				COc1cc(N2CC[C@@H]2CN(C)C)c(NC(=O)/C=C/CN(C)C)cc1Nc1ncnc(-n2ccc3cnccc32)n1 [Example 2, (R,E)-N-(5-((4-(1H-pyrrole[3,2-c]pyridin-1-yl)-1,3,5-triazin-2-yl)amino)-2-(2-((dimethylamino)methyl)azetidine-1-yl)-4-methoxyphenyl)-4-(dimethylamino)butene-2-amide]
0.598	0.0538	0.406					C=CC(=O)Nc1cc(Nc2nccc(-n3cc(CN(C)C)c(-c4ccccc4)n3)n2)c(OC)cc1N1CCOCC1 [Compound 34, N-(5-((4-(4-((dimethylamine)methyl)-3-phenyl-1H-pyrazol-1-yl)pyrimidin-2-yl)amine)-4-methoxy-2-morpholinylphenyl)acrylamide]
			0.057				C=CC(=O)Nc1cc(Nc2ncnc(-n3nc(F)c4ccccc43)n2)c(OC)cc1N(C)CCN(C)C [Example 3, N-(2-((2-(dimethylamino)ethyl)(methyl)amino)-5-((4-(3-fluoro-1H-indazol-1-yl)-1,3,5-triazin-2-yl)amino)-4-methoxyphenyl)acrylamide]
